Experimental data published in patent US20170121315A1, “HETEROBICYCLICALLY SUBSTITUTED 4-OXOBUTANE ACID DERIVATIVES AND USE THEREOF” (priority 2014, published 2017).

How the values were obtained:
Format in all cases: biochemical
[1] = target: T1, human macrophage elastase (HME/hMMP-12) (Homo sapiens, UniProt P39900); experiment: In vitro HME inhibition test (standard or high-sensitivity); settings: in some cases mean values, rounded to two significant figures
T1 construct: purchased R&D Systems 917-MP
T1 sequence (P39900 106-470): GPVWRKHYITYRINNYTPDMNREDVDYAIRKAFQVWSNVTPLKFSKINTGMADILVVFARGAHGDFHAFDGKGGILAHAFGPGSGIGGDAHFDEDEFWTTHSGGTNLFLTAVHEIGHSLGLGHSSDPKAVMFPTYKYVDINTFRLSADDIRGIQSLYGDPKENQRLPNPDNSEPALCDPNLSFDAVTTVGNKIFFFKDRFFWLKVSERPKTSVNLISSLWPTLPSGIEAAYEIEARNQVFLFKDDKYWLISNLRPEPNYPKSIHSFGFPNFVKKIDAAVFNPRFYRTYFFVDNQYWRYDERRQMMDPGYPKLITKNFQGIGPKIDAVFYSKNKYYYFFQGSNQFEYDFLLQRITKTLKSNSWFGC
How it was run: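 Autoactivated HME (0.5 nM; high-sensitivity format 0.05 nM, ~16 h) with 5 μM quenched Mca-PLGLEEA-Dap(Dnp)-NH2 substrate in HEPES pH 7.4, NaCl, CaCl2, ZnCl2, EDTA, Brij buffer, 2 h at 37° C. Fluorescence at ex 323/em 393 nm; IC50 from signal versus concentration.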

MMP-7 = target: T2, MMP-7 (Homo sapiens, UniProt P09237); experiment: In vitro MMP-7 inhibition test; settings: human MMP-7
T2 construct: purchased R&D Systems 907-MP
T2 sequence (P09237 95-267): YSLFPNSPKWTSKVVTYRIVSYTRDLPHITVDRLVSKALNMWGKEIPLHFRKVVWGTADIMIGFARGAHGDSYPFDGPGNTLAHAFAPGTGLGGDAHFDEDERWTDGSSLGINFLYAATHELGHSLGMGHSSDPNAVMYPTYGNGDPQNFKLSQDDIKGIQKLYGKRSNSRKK
Description: (§1) The MMP-mediated amidolytic cleavage of a suitable peptide substrate leads to an increase in fluorescent light here too. The signal intensity of the fluorescent light is directly proportional to the enzyme activity. The active concentration of a test compound at which half the enzyme is inhibited (50% signal intensity of the fluorescent light) is reported as the IC50 value.
(§2) Recombinant MMP-7 (from R&D Systems, 907-MP) is chemically activated in accordance with the manufacturer's instructions using APMA. 1 μl of the test compound to be analysed (as a solution in DMSO, suitable concentrations e.g. 1 nM to 30 μM) is pipetted into 24 μl of activated enzyme (final concentration e.g. 0.5 nM) in reaction buffer (50 mM Tris/HCl pH 7.5, 10 mM CaCl2, 150 mM NaCl, 0.05% Brij®-35) in a white 384-hole microtiter plate (MTP). The enzymatic reaction is started by adding the intramolecularly quenched Mca-Pro-Leu-Gly-Leu-Dpa(Dnp)-Ala-Arg-NH2 substrate (final concentration e.g. 10 μM; R&D Systems, ES-001), so as to result in a total test volume of 50 μl. The course of the MMP-7 reaction is measured by measuring the fluorescence intensity (excitation 320 nm, emission 410 nm) over a suitable period of time (e.g. over 120 min at a temperature of 32° C.).

MMP-9 = target: T3, MMP-9 (Homo sapiens, UniProt P14780); experiment: In vitro MMP-9 inhibition test; settings: human MMP-9
T3 construct: purchased R&D Systems 911-MP
T3 sequence (P14780 107-707 limits assumed): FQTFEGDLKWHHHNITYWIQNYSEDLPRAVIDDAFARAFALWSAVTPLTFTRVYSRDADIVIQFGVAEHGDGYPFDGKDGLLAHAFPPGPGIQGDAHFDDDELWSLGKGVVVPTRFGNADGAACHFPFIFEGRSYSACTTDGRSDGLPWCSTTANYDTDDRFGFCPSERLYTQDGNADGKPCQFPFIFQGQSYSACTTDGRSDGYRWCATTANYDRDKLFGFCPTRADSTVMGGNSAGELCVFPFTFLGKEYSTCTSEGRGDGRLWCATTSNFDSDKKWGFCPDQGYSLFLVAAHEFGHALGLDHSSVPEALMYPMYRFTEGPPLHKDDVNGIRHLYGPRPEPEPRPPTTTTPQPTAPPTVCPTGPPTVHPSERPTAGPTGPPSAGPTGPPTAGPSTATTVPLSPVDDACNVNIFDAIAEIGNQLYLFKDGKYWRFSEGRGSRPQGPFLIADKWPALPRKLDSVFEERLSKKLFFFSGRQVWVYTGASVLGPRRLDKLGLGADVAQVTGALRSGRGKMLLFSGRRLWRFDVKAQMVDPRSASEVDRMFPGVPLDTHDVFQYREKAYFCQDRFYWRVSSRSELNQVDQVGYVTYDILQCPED
Description: as §1
as §2, with “MMP-9 (R&D” for “MMP-7 (from R&D”, “911-MP)” for “907-MP)”, “0.1” for “0.5”, “MMP-9” for “MMP-7”

MMP-14 = target: T4, MMP-14 (Homo sapiens, UniProt P50281); experiment: In vitro MMP-14 inhibition test; settings: human MMP-14
T4 construct: purchased R&D Systems 918-MP
Description: as §1
Recombinant MMP-14 (R&D Systems, 918-MP) is enzymatically activated in accordance with the manufacturer's instructions using recombinant furin (R&D Systems, 1503-SE). 1 μl of the test compound to be analysed (as a solution in DMSO, suitable concentrations e.g. 1 nM to 30 μM) is pipetted into 24 μl of activated enzyme (final concentration e.g. 0.5 nM) in reaction buffer (50 mM Tris/HCl pH 7.5, 10 mM CaCl2, 150 mM NaCl, 0.05% Brij®-35) in a white 384-hole microtiter plate (MTP). The enzymatic reaction is started by adding the intramolecularly quenched Mca-Lys-Pro-Leu-Gly-Leu-Dpa(Dnp)-Ala-Arg-NH2 substrate (final concentration e.g. 5 μM; R&D Systems, ES-010), so as to result in a total test volume of 50 μl. The course of the MMP-14 reaction is measured by measuring the fluorescence intensity (excitation 320 nm, emission 410 nm) over a suitable period of time (e.g. over 120 min at a temperature of 32° C.).

| SMILES | IC50 [1] [µM] | IC50 (MMP-7) [µM] | IC50 (MMP-9) [µM] | IC50 (MMP-14) [µM] |
| --- | --- | --- | --- | --- |
| O=C(CC(CCn1nnc2ccccc2c1=O)C(=O)O)c1cc2cc(OCCc3ccccc3Cl)ccc2o1 (racemic) [Example 1, (+/−)-4-{5-[2-(2-Chlorophenyl)ethoxy]-1-benzofur-2-yl}-4-oxo-2-[2-(4-oxo-1,2,3-benzotriazin-3(4H)-yl)ethyl]butanoic acid] | 0.0026 | > 40 | > 40 | > 40 |
| O=C(CC(CCn1nnc2ccccc2c1=O)C(=O)O)c1cc2cc(OCCc3ccc(Cl)cc3)ccc2o1 (racemic) [Example 2, (+/−)-4-{5-[2-(4-Chlorophenyl)ethoxy]-1-benzofur-2-yl}-4-oxo-2-[2-(4-oxo-1,2,3-benzotriazin-3(4H)-yl)ethyl]butanoic acid] | 0.0026 | > 40 | 24 | > 40 |
| O=C(CC(CCn1nnc2ccccc2c1=O)C(=O)O)c1cc2cc(OCC3CCOCC3)ccc2o1 (racemic) [Example 5, (+/−)-4-Oxo-2-[2-(4-oxo-1,2,3-benzotriazin-3(4H)-yl)ethyl]-4-[5-(tetrahydro-2H-pyran-4-ylmethoxy)-1-benzofur-2-yl]butanoic acid] | 0.0021 | > 40 | 9.1 | 34 |
| O=C(CC(CCn1nnc2ccccc2c1=O)C(=O)O)c1cc2cc(OCCC3CCOCC3)ccc2o1 (racemic) [Example 6, (+/−)-4-Oxo-2-[2-(4-oxo-1,2,3-benzotriazin-3(4H)-yl)ethyl]-4-{5-[2-(tetrahydro-2H-pyran-4-yl)ethoxy]-1-benzofur-2-yl}butanoic acid] | 0.004 | > 40 | 3.4 | 37 |
| O=C(CC(CCn1nnc2ccccc2c1=O)C(=O)O)c1cc2cc(OCCC3CCCC3)ccc2o1 (racemic) [Example 7, (+/−)-4-[5-(2-Cyclopentylethoxy)-1-benzofur-2-yl]-4-oxo-2-[2-(4-oxo-1,2,3-benzotriazin-3(4H)-yl)ethyl]butanoic acid] | 0.0028 | > 40 | 5 | > 40 |
| O=C(CC(CCn1nnc2ccccc2c1=O)C(=O)O)c1cc2cc(OCC3CCCCC3)ccc2o1 (racemic) [Example 8, (+/−)-4-[5-(Cyclohexylmethoxy)-1-benzofur-2-yl]-4-oxo-2-[2-(4-oxo-1,2,3-benzotriazin-3(4H)-yl)ethyl]butanoic acid] | 0.002 | > 40 | 13 | > 40 |
| CCCCCCCOc1ccc2oc(C(=O)CC(CCn3nnc4ccccc4c3=O)C(=O)O)cc2c1 (racemic) [Example 31, (+/−)-4-[5-(Heptyloxy)-1-benzofur-2-yl]-4-oxo-2-[2-(4-oxo-1,2,3-benzotriazin-3(4H)-yl)ethyl]butanoic acid] | 0.0048 | > 40 | 9.7 | > 40 |
| O=C(CC(CCn1nnc2ccccc2c1=O)C(=O)O)c1cc2cc(OCCCc3ccccc3)ccc2o1 (racemic) [Example 37, (+/−)-4-Oxo-2-[2-(4-oxo-1,2,3-benzotriazin-3(4H)-yl)ethyl]-4-[5-(3-phenylpropoxy)-1-benzofur-2-yl]butanoic acid] | 0.0046 | > 40 | 17 | > 40 |
| O=C(CC(CCn1nnc2ccccc2c1=O)C(=O)O)c1cc2cc(OCc3ccc(C(F)(F)F)cc3)ccc2o1 (racemic) [Example 44, (+/−)-4-Oxo-2-[2-(4-oxo-1,2,3-benzotriazin-3(4H)-yl)ethyl]-4-(5-{[4-(trifluoromethyl)benzyl]oxy}-1-benzofur-2-yl)butanoic acid] | 0.00062 | > 40 | 9.9 | 13 |

Second part, the compound after the results:

| IC50 [1] [µM] | IC50 (MMP-7) [µM] | IC50 (MMP-9) [µM] | IC50 (MMP-14) [µM] | SMILES |
| --- | --- | --- | --- | --- |
| 0.0016 | > 40 | 26 | > 40 | O=C(CC(CCn1nnc2ccccc2c1=O)C(=O)O)c1cc2cc(OCc3cccc(Cl)c3)ccc2o1 (racemic) [Example 50, (+/−)-4-{5-[(3-Chlorobenzyl)oxy]-1-benzofur-2-yl}-4-oxo-2-[2-(4-oxo-1,2,3-benzotriazin-3(4H)-yl)ethyl]butanoic acid] |
| 0.0041 | 35 | 30 | > 40 | Cc1cccc(COc2ccc3oc(C(=O)CC(CCn4nnc5ccccc5c4=O)C(=O)O)cc3c2)c1 (racemic) [Example 51, (+/−)-4-{5-[(3-Methylbenzyl)oxy]-1-benzofur-2-yl}-4-oxo-2-[2-(4-oxo-1,2,3-benzotriazin-3(4H)-yl)ethyl]butanoic acid] |
| 0.005 | > 40 | 10 | 2.2 | CCCOc1ccc2cc(C(=O)CC(CCn3nnc4ccccc4c3=O)C(=O)O)oc2c1 (racemic) [Example 58, (+/−)-4-Oxo-2-[2-(4-oxo-1,2,3-benzotriazin-3(4H)-yl)ethyl]-4-(6-propoxy-1-benzofur-2-yl)butanoic acid] |
| 0.0022 | > 40 | > 40 | > 40 | O=C(CC(CCn1nnc2ccccc2c1=O)C(=O)O)c1cc2ccc(OCCCC3CCCCC3)cc2o1 (racemic) [Example 71, (+/−)-4-[6-(3-Cyclohexylpropoxy)-1-benzofur-2-yl]-4-oxo-2-[2-(4-oxo-1,2,3-benzotriazin-3(4H)-yl)ethyl]butanoic acid] |
| 0.0028 | > 40 | 2.2 | > 40 | O=C(CC(CCn1nnc2ccccc2c1=O)C(=O)O)c1cc2ccc(OCCc3ccccc3)cc2o1 (racemic) [Example 73, (+/−)-4-Oxo-2-[2-(4-oxo-1,2,3-benzotriazin-3(4H)-yl)ethyl]-4-[6-(2-phenylethoxy)-1-benzofur-2-yl]butanoic acid] |
| 0.00018 | > 40 | 0.18 | 1.4 | O=C(CC(CCn1nnc2ccccc2c1=O)C(=O)O)c1coc2cc(OCCC3CCOCC3)ccc12 (racemic) [Example 74, (+/−)-4-Oxo-2-[2-(4-oxo-1,2,3-benzotriazin-3(4H)-yl)ethyl]-4-{6-[2-(tetrahydro-2H-pyran-4-yl)ethoxy]-1-benzofur-3-yl}butanoic acid] |
| 0.00022 | > 40 | 0.45 | 6.5 | O=C(CC(CCn1nnc2ccccc2c1=O)C(=O)O)c1coc2cc(OCCC3CCCC3)ccc12 (racemic) [Example 75, (+/−)-4-[6-(2-Cyclopentylethoxy)-1-benzofur-3-yl]-4-oxo-2-[2-(4-oxo-1,2,3-benzotriazin-3(4H)-yl)ethyl]butanoic acid] |
| 0.00035 | > 40 | 0.23 | 13 | CCCCCOc1ccc2c(C(=O)CC(CCn3nnc4ccccc4c3=O)C(=O)O)coc2c1 (racemic) [Example 89, (+/−)-4-Oxo-2-[2-(4-oxo-1,2,3-benzotriazin-3(4H)-yl)ethyl]-4-[6-(pentyloxy)-1-benzofur-3-yl]butanoic acid] |
